From patent US11760889B2, “Unsaturated fatty alcohol derivatives from natural oil metathesis” (priority 2012, dated 2023)

Assay: Surfactant phase behavior study (cross-polarized microscopy)
Type: physicochemical
Settings: room temperature (20-22° C.)
Method: Phase behavior is observed using an Olympus BH-2 cross-polarized microscope at 100-400× and room temperature (20° C. to 22° C.). The inventive monounsaturated sulfates and ethoxylate sulfates are compared with their saturated analogs, and in some cases, commercial surfactants.
Samples are prepared by diluting the most concentrated product gradually with deionized water. When the surfactant concentration approaches a phase transition, the concentration is varied at 2-4% intervals to estimate the phase boundary. The actives level reported in Table 15 for each phase boundary is within ±5% of the true boundary.
Samples are loaded between a microscope slide and cover glass and are allowed to equilibrate before observation. Microscopic texture is analyzed and used to determine the phase. For some samples, an AR 2000 rheometer (TA Instruments) is used to measure viscosity at 25° C. to further verify phase behavior.

Row | Estimated Phase Region: Hexagonal | Estimated Phase Region: Isotropic Clear | Estimated Phase Region: Solid/gum/paste | Compound | Estimated Phase Region: Lamellar | Estimated Phase Region: Unknown | Estimated Phase Region: Cubic
1 | 41-59 % actives | 0-41 % actives | 59-100 % actives | CCCCCCCCCCOS(=O)(=O)[O-].[Na+] [sat. analog of A10-3, reference compound] |  |  | 
2 |  | 0-31 % actives | 31-100 % actives | CCCCCCCCCCCCOS(=O)(=O)[O-].[Na+] [sat. analog of A12-3, reference compound] |  |  | 
3 | 42-64 % actives |  | 80-100 % actives | CCCCCCCCCCOS(=O)(=O)O.N [sat. analog of A10-2, reference compound] | 64-80 % actives | 0-42 % actives | 
4 | 33-70 % actives | 0-33 % actives | 83-100 % actives | C12 Alcohol Ammonium Sulfate [A12-2] | 70-83 % actives |  | 
5 | 24-60 % actives | 0-24 % actives | 78-100 % actives | CCCCCCCCCCCCOCCOCCOCCOS(=O)(=O)[O-].[Na+] [sat. analog of A12-9, reference compound] | 60-78 % actives |  | 
6 | 31-63 % actives | 0-31 % actives | 74-100 % actives | CCCCCCCCCCCCOS(=O)(=O)O.N [sat. analog of A12-2, reference compound] | 63-74 % actives |  | 

Row | Compound | Estimated Phase Region: Hexagonal | Estimated Phase Region: Isotropic Clear | Estimated Phase Region: Solid/gum/paste | Estimated Phase Region: Lamellar | Estimated Phase Region: Unknown | Estimated Phase Region: Cubic
7 | 3 Mole Ethoxylated C12 Alcohol, Sodium Sulfate [A12-9] | 31-60 % actives | 0-31 % actives | 87-100 % actives | 68-87 % actives |  | 60-68 % actives
8 | C12 Alcohol Sodium Sulfate [A12-3] | 38-66 % actives | 0-38 % actives | 83-100 % actives | 66-83 % actives |  | 
9 | C=CCCCCCCCCOS(=O)(=O)[O-].[Na+] [A10-3] | 43-70 % actives | 0-43 % actives | 81-100 % actives | 70-81 % actives |  | 
10 | C=CCCCCCCCCOS(=O)(=O)O.N [A10-2] | 42-64 % actives |  | 80-100 % actives | 64-80 % actives | 0-42 % actives | 

Assay: Emulsion polymerization surfactant screen
Settings: not given
Method: A reaction kettle is charged with sodium bicarbonate (0.50 g), water (225 g), and seed latex (30 g) and the mixture is heated to and held at 83° C. under nitrogen with stirring at 200 rpm. […] Methyl methacrylate (255 g), butyl acrylate (235 g), and methacrylic acid (10 g) are combined in an Erlenmeyer flask and mixed. […] Separately, two other mixtures are prepared: an initiator shot mixture of ammonium persulfate (1.0 g) in water (20 g), and a cofeed mixture of ammonium persulfate (2.70 g), sodium bicarbonate (1.50 g), and water (75 g); the total amount of initiator used is 0.74% based on monomers. The initiator shot is charged to the 83° C. reaction kettle dropwise over 1 min, then held for 10 min. The monomer emulsion is then fed to the kettle at 2.1 mL/min. for 10 min. The feed rate of the monomer emulsion is increased to 4.2 mL/min., and the cofeed mixture is started at 0.37 mL/min. Total addition time is 3 h, during which particle size and temperature are monitored. After addition of the monomer emulsion is complete, a water wash (50 g) is started, and heating at 83° C. continues for 1 h. The product is cooled. The pH is adjusted to 7.5 with dilute ammonium hydroxide solution. A preservative is added, and the mixture is filtered.

Row | pre-emulsion stability | Compound
11 | stable | calcium alkylbenzenesulfonate [Control 1]

Same assay, conditions: surfactant level in EP 0.50%

Row | Compound | pre-emulsion stability
12 | C12 Alcohol Sodium Sulfate [A12-3] | stable

Assay: Anionic emulsifier: emulsion stability testing of EW concentrate (modified ASTM E1116-98)
Settings: 34 ppm water
Method: Turbidity changes are noted and recorded.
A Mohr pipette is used to feed EW concentrate to each cylinder. Cylinders are stoppered and inverted ten times, then allowed to stand for 0.5, 1, and 24 h while recording stability at each time as type and % separation.
Spontaneity is recorded according to the following criteria: (1) poor: very thin emulsion cloud with major separation of oil droplets; (2) fair: thin emulsion cloud with minor separation of oil droplets; (3) good: thin emulsion cloud reaches the bottom of the cylinder without separation of any type; (4) excellent: thick emulsion cloud reaches the bottom of the cylinder without separation of any type.

Row | Compound | % Separation, 1 h [%] | % Separation, 24 h [%]
13 | 3 Mole Ethoxylated C12 Alcohol, Sodium Sulfate [A12-9] | 3.3 | 4.2
14 | C12 Alcohol Ammonium Sulfate [A12-2] | 4 | 4.2
15 | C12 Alcohol Sodium Sulfate [A12-3] | 4.5 | 5.7
16 | 5 Mole Ethoxylated C10 Alcohol, Sodium Sulfate [A10-12] | 3.6 | 4
17 | C=CCCCCCCCCOS(=O)(=O)[O-].[Na+] [A10-3] | 4 | 4
18 | 7 Mole Ethoxylated C10 Alcohol, Sodium Sulfate [A10-15] | 3.5 | 3.9
19 | C=CCCCCCCCCOS(=O)(=O)O.N [A10-2] | 3.8 | 4
20 | 1 Mole Ethoxylated C12 Alcohol, Sodium Sulfate [A12-6] | 4.3 | 5.2
21 | 15 Mole Ethoxylated C12 Alcohol, Sodium Sulfate [A12-18] | 3 | 4.3
22 | 1 Mole Ethoxylated C10 Alcohol, Sodium Sulfate [A10-6] | 4 | 4.9

Same assay, conditions: 1000 ppm water

Row | Compound | % Separation, 1 h [%] | % Separation, 24 h [%]
23 | 3 Mole Ethoxylated C12 Alcohol, Sodium Sulfate [A12-9] | 2.1 | 3
24 | C12 Alcohol Ammonium Sulfate [A12-2] | 2.5 | 3.2
25 | C12 Alcohol Sodium Sulfate [A12-3] | 3 | 4
26 | 5 Mole Ethoxylated C10 Alcohol, Sodium Sulfate [A10-12] | 3.4 | 4.3
27 | C=CCCCCCCCCOS(=O)(=O)[O-].[Na+] [A10-3] | 3 | 3.1
28 | 7 Mole Ethoxylated C10 Alcohol, Sodium Sulfate [A10-15] | 3 | 4.1
29 | C=CCCCCCCCCOS(=O)(=O)O.N [A10-2] | 3.1 | 3.8
30 | 1 Mole Ethoxylated C12 Alcohol, Sodium Sulfate [A12-6] | 2.7 | 3.7
31 | 15 Mole Ethoxylated C12 Alcohol, Sodium Sulfate [A12-18] | 2.5 | 3.9
32 | 1 Mole Ethoxylated C10 Alcohol, Sodium Sulfate [A10-6] | 3 | 3.2

Assay: Water-soluble herbicide formulation testing (standard dilution test, emulsion stability);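 also: diluted in a 50 mL Nessler cylinder held at 30 °C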
Type: physicochemical
Design: key to Emulsion stability, mL separation, 24 h: Tr = trace
Settings: Adjuvant (anionic/nonionic) test sample; 342 ppm water
Method: Surfactant candidates for water soluble herbicide applications are examined as a replacement for the anionic, nonionic, or anionic/nonionic blend portion and compared to a known industry adjuvant standard for use in paraquat, a water soluble herbicide concentrate formulation. A standard dilution test is conducted whereby the concentrates are diluted in water to determine if solubility is complete.
The cylinder is stoppered and inverted ten times. Solubility is recorded as complete or incomplete. Cylinders are allowed to stand and the amount (in mL) and type of separation are recorded after 30 min., 1 h, 2 h, and 24 h. Results of the solubility testing appear in Table 3 below.
An eight to ten mole alkyl phenol ethoxylate surfactant (0.7 g) is added and vigorously mixed for 30 s. Test sample (0.7 g) is added and mixing resumes for 30 s.
Test sample (0.7 g) is added and vigorously mixed for 30 s. Sodium linear alkylbenzene sulfonate (“NaLAS,” 0.7 g) is added and mixing resumes for 30 s.

Row | Compound | Emulsion stability, mL separation, 1 h [mL] | Emulsion stability, mL separation, 24 h
33 | 3 Mole Ethoxylated C12 Alcohol, Sodium Sulfate [A12-9] | 0 | 0 mL
34 | C12 Alcohol Sodium Sulfate [A12-3] | 0 | Tr
35 | 5 Mole Ethoxylated C10 Alcohol, Sodium Sulfate [A10-12] | 0 | 0 mL
36 | C=CCCCCCCCCOS(=O)(=O)[O-].[Na+] [A10-3] | 0 | 0 mL
37 | 7 Mole Ethoxylated C10 Alcohol, Sodium Sulfate [A10-15] | 0 | 0 mL
38 | C=CCCCCCCCCOS(=O)(=O)O.N [A10-2] | 0 | 0 mL
39 | 1 Mole Ethoxylated C12 Alcohol, Sodium Sulfate [A12-6] | 0 | 0 mL
40 | 15 Mole Ethoxylated C12 Alcohol, Sodium Sulfate [A12-18] | 0 | 0 mL
41 | 1 Mole Ethoxylated C10 Alcohol, Sodium Sulfate [A10-6] | 0 | 0 mL

Same assay, conditions: Anionic test sample; 342 ppm water

Row | Compound | Emulsion stability, mL separation, 1 h [mL] | Emulsion stability, mL separation, 24 h [mL]
42 | 3 Mole Ethoxylated C12 Alcohol, Sodium Sulfate [A12-9] | 0 | 0
43 | C12 Alcohol Sodium Sulfate [A12-3] | 0 | 0
44 | 5 Mole Ethoxylated C10 Alcohol, Sodium Sulfate [A10-12] | 0 | 0
45 | C=CCCCCCCCCOS(=O)(=O)[O-].[Na+] [A10-3] | 0 | 0
46 | 7 Mole Ethoxylated C10 Alcohol, Sodium Sulfate [A10-15] | 0 | 0
47 | C=CCCCCCCCCOS(=O)(=O)O.N [A10-2] | 0 | 0
48 | 1 Mole Ethoxylated C12 Alcohol, Sodium Sulfate [A12-6] | 0 | 0
49 | 15 Mole Ethoxylated C12 Alcohol, Sodium Sulfate [A12-18] | 0 | 0
50 | 1 Mole Ethoxylated C10 Alcohol, Sodium Sulfate [A10-6] | 0 | 0

Same assay, conditions: Nonionic test sample; 342 ppm water

Row | Compound | Emulsion stability, mL separation, 1 h [mL] | Emulsion stability, mL separation, 24 h
51 | 3 Mole Ethoxylated C12 Alcohol, Sodium Sulfate [A12-9] | 0 | 0 mL
52 | C12 Alcohol Sodium Sulfate [A12-3] | 0 | Tr
53 | 5 Mole Ethoxylated C10 Alcohol, Sodium Sulfate [A10-12] | 0 | 0 mL
54 | C=CCCCCCCCCOS(=O)(=O)[O-].[Na+] [A10-3] | 0 | Tr
55 | 7 Mole Ethoxylated C10 Alcohol, Sodium Sulfate [A10-15] | 0 | 0 mL
56 | C=CCCCCCCCCOS(=O)(=O)O.N [A10-2] | 0 | Tr
57 | 1 Mole Ethoxylated C12 Alcohol, Sodium Sulfate [A12-6] | 0 | 0 mL
58 | 15 Mole Ethoxylated C12 Alcohol, Sodium Sulfate [A12-18] | 0 | 0 mL
59 | 1 Mole Ethoxylated C10 Alcohol, Sodium Sulfate [A10-6] | 0 | Tr
